Data: patent US12178800B2, “Sulforaphane-melatonin-like compound” (priority 2018, dated 2024)

Columns and labels:
irradiated skin of pigs = test: Gamma-radiation-induced dermatitis in mini-pigs, clinical skin reaction score; format: in vivo, Gottingen mini-pigs
Source text: Male Gottingen mini-pigs (mean weight, 19 kg; range, 18-20 kg; age, 6-7 months), obtained from Institute of Animal Breeding and Genetics, University of Gottingen, Germany, were used in these experiments. The mini-pigs were provided with tap water and commercial laboratory piglet chow from Purina Germany (Purina laboratory pig chow-5085) containing crude protein, fat, fiber, and ash, as well as calcium, phosphorus, and moisture (14.5, 4, 5, 8, 0.55, 1, and 14%, respectively). In addition, no antibiotic supplements were used. All animal experiments were performed in compliance to The German Animal Welfare Act.
(§1) A formulation in accordance with embodiments of the present invention appropriate for topical administration was obtained by adding 200 mg of carbopol (Carbopol 934P; Lubrizol, USA) to 2.5 mL of distilled water and solubilizing 200 mg of 6OHM-6-HITC in 2 mL of ethanol. An appropriate amount of the ethanolic dispersion was transferred to the aqueous dispersion of carbopol. Methanol (1.25 mL) was mixed with 1 mL of ethanol and added to the 6OHM-6-HITC and carbopol mixture, which was gradually stirred, and carbopol was allowed to soak for 2 h. Triethanolamine (100 mg; Sigma-Aldrich, USA) was added to neutralize the carbopol solution and facilitate the formation of a gel, after which the pH was adjusted to 6.8. A vehicle cream was prepared using the same ingredients and identical methods as the cream, but 6OHM-6-HITC was omitted from the mixture. […] For topical treatment, 6OHM-6-HITC or the vehicle cream (concentration, 200 mg/cm^2) was spread on the irradiated skin of pigs twice daily for 35 days, and the first application was performed immediately after irradiation.
To observe the effects of gamma-radiation on the skin of mini-pigs (3 animals per group), the dorsal skin was irradiated. […]
The pigs were evaluated every week during the five weeks following the irradiation, and their skin reactions were scored using a clinical status scoring system. […]

[1] = Topical carbopol gel formulation: permeability and skin irritation; conditions: pH 6.8
Protocol: as §1

mouse tongues = test: Histopathology (H&E) of tongue specimens after X-ray irradiation; format: in vivo, ICR mice; conditions: 12 days post-irradiation

Q: Which “clinical changes of irradiated skin vs. vehicle-treated” value (irradiated skin of pigs; 1 week after 50 Gy gamma irradiation, topical twice daily) does the source give for COc1cc2c(CCCCN=C=S)c[nH]c2cc1O [6OHM-6-HITC] here?
A: similar

Q: What about the “severity of skin reaction vs. vehicle-treated irradiation group” value (irradiated skin of pigs; 50 Gy gamma irradiation, topical twice daily for 35 days) of the same molecule?
A: decreased severity in the skin reaction

Q: And the “time at which beneficial effects on the dermatitis appeared” value (irradiated skin of pigs; after 50 Gy gamma irradiation, topical twice daily)?
A: 2 weeks

Q: What about the “permeability of 6OHM-6-HITC from topical gel formulation” value [1] of the same molecule?
A: highest permeability

Q: What about the “skin irritation by topical gel formulation” value [1] of the same molecule?
A: without causing skin irritation

Q: And the “degree of epidermolysis of the tongue” value (mouse tongues)?
A: preserved

Q: And the “infiltration of inflammatory cells” value (mouse tongues)?
A: decreased
